Laboratory results: patent US20230310393A1 (Tianjin Creatron Biotechnology Co., Ltd., priority 2020, published 2023)
Values after ≈ are worked out from the molar mass of the structure shown. Where two headings read alike, the source gives them in different places.

What was measured:
[1] = Solubility of sorafenib in different organic solvents; assay type: physicochemical; details: for solubility at 30 min / solubility at 24 h: organic solvent, 37 °C, organic solvent or mixture, thermodynamic from solid
[2] = Stability of sorafenib in different organic solvents (related substances by HPLC); assay type: physicochemical
[3] = Solubility test of solid dispersions (pH 1.0 hydrochloric acid, pH 6.8 phosphate buffer, FaSSGF, FaSSIF); assay type: physicochemical; details: main drug:carrier 1:3; for Solubility: pH 1.0 hydrochloric acid solution, 37° C., listed as SLFN
Method: An appropriate amount of solid dispersion (SD) was added to a pH 1.0 hydrochloric acid solution and a pH 6.8 phosphate buffer solution, while keeping the SD in excess, and shaken at 37° C. in a shaker at 300 rpm.

[4] = Stability of solid dispersions at high temperature of 60° C. (related substances by HPLC); assay type: physicochemical
Method: The SD prepared above was sealed in an aluminum foil bag, placed in a high temperature of 60° C. for investigation for 10 days and 30 days, and related substances were detected by HPLC method.

[5] = healthy volunteer, oral 100 mg 14C radiolabeled sorafenib; cited from earlier work
[6] = renal cell carcinoma patients; cited from earlier work
[7] = cited from earlier work
[8] = acetone-ethanol 1:2, standing 30 min
[9] = acetone-ethanol 1:2, standing 24 h
[10] = dichloromethane-acetone 3:1, standing 30 min
[11] = dichloromethane-acetone 3:1, standing 24 h
[12] = methanol-dichloromethane 1:2, standing 30 min
[13] = methanol-dichloromethane 1:2, standing 24 h
[14] = methanol-dichloromethane 1:3, standing 30 min
[15] = methanol-dichloromethane 1:3, standing 24 h
[16] = methanol-dichloromethane 1:4, standing 30 min
[17] = methanol-dichloromethane 1:4, standing 24 h

Q: Which results are given for `CNC(=O)c1cc(Oc2ccc(NC(=O)Nc3ccc(Cl)c(C(F)(F)F)c3)cc2)ccn1` [sorafenib, 4-{4-[3-(4-chloro-3-trifluoromethyl-phenyl)acylurea]-phenoxy}-pyridine-2-carboxylic acid methylamine]?
A: Solubility ([1]; acetone-ethanol 1:2, 30 min, 37° C.): 18.51 mg/mL (≈ 39.8 mM); Solubility ([1]; acetone-ethanol 1:2, 24 h, 37° C.): 18.48 mg/mL (≈ 39.8 mM); Solubility (visual inspection) ([1]; acetone-ethanol 1:3 and 1:5, 30 min): Less API dissolved by visual; Solubility (visual inspection) ([1]; dichloromethane-acetone 1:1 and 2:1, 30 min): Less API dissolved by visual; Solubility ([1]; methanol-dichloromethane 1:1, 30 min, 37° C.): 14.28 mg/mL (≈ 30.7 mM); solubility at 30 min ([1]; dichloromethane-acetone 3:1, 30 min, 37° C.): 3.6 mg/mL (≈ 7.74 mM); solubility at 24 h ([1]; dichloromethane-acetone 3:1, 24 h, 37° C.): 4.04 mg/mL (≈ 8.69 mM); solubility at 30 min ([1]; isopropanol, 30 min): 2.91 mg/mL (≈ 6.26 mM); solubility at 24 h ([1]; isopropanol, 24 h): 2.81 mg/mL (≈ 6.05 mM); solubility at 30 min ([1]; methanol-dichloromethane 1:0.5 (v/v), 30 min, 37° C.): 8.34 mg/mL (≈ 17.9 mM); solubility at 24 h ([1]; methanol-dichloromethane 1:0.5 (v/v), 24 h, 37° C.): 19.2 mg/mL (≈ 41.2 mM); solubility at 24 h ([1]; methanol-dichloromethane 1:1, 24 h, 37° C.): 24.2 mg/mL (≈ 52.1 mM); solubility at 30 min ([1]; methanol-dichloromethane 1:2, 30 min, 37° C.): 20.9 mg/mL (≈ 45 mM); solubility at 24 h ([1]; methanol-dichloromethane 1:2, 24 h, 37° C.): 36.2 mg/mL (≈ 77.8 mM); solubility at 30 min ([1]; methanol-dichloromethane 1:3, 30 min, 37° C.): 36.4 mg/mL (≈ 78.2 mM); solubility at 24 h ([1]; methanol-dichloromethane 1:3, 24 h, 37° C.): 36.4 mg/mL (≈ 78.4 mM); solubility at 30 min ([1]; methanol-dichloromethane 1:4, 30 min, 37° C.): 31.3 mg/mL (≈ 67.4 mM); solubility at 24 h ([1]; methanol-dichloromethane 1:4, 24 h, 37° C.): 36.3 mg/mL (≈ 78.1 mM); Related substances RRT 0.08 ([2]; API, no solvent): 0.008%; Related substances RRT 0.30 ([2]; API, no solvent): 0.029%; Related substances RRT 0.40 ([2]; API, no solvent): 0.006%; Related substances RRT 0.55 ([2]; API, no solvent): 0.028%; Related substances RRT 0.92 ([2]; API, no solvent): 0.054%; Related substances RRT 1.00 ([2]; API, no solvent): 99.864%; Related substances RRT 0.05 [2, 8]: 4.314%; Related substances RRT 0.08 [2, 8]: 0.011%; Related substances RRT 0.30 [2, 8]: 0.029%; Related substances RRT 0.40 [2, 8]: 0.008%; Related substances RRT 0.55 [2, 8]: 0.025%; Related substances RRT 0.92 [2, 8]: 0.047%; Related substances RRT 1.00 [2, 8]: 95.562%; Related substances RRT 0.05 [2, 9]: 3.946%; Related substances RRT 0.08 [2, 9]: 0.010%; Related substances RRT 0.30 [2, 9]: 0.033%; Related substances RRT 0.40 [2, 9]: 0.007%; Related substances RRT 0.55 [2, 9]: 0.020%; Related substances RRT 0.92 [2, 9]: 0.035%; Related substances RRT 1.00 [2, 9]: 95.893%; Related substances RRT 0.05 [2, 10]: 12.979%; Related substances RRT 0.08 [2, 10]: 2.491%; Related substances RRT 0.30 [2, 10]: 0.020%; Related substances RRT 0.35 [2, 10]: 0.282%; Related substances RRT 0.92 [2, 10]: 0.039%; Related substances RRT 1.00 [2, 10]: 84.196%; Related substances RRT 0.05 [2, 11]: 14.191%; Related substances RRT 1.00 [2, 11]: 85.157%; Related substances RRT 0.03 ([2]; isopropanol, standing 30 min): 0.161%; Related substances RRT 1.00 ([2]; isopropanol, standing 30 min): 99.839%; Related substances RRT 1.00 ([2]; isopropanol, standing 24 h): 99.365%; Related substances RRT 0.08 [2, 12]: 0.011%; Related substances RRT 0.30 [2, 12]: 0.030%; Related substances RRT 0.40 [2, 12]: 0.008%; Related substances RRT 0.55 [2, 12]: 0.031%; Related substances RRT 0.92 [2, 12]: 0.037%; Related substances RRT 1.00 [2, 12]: 99.870%; Related substances RRT 0.08 [2, 13]: 0.013%; Related substances RRT 0.30 [2, 13]: 0.035%; Related substances RRT 0.40 [2, 13]: 0.009%; Related substances RRT 0.55 [2, 13]: 0.028%; Related substances RRT 0.92 [2, 13]: 0.049%; Related substances RRT 1.00 [2, 13]: 99.853%; Related substances RRT 0.08 [2, 14]: 0.015%; Related substances RRT 0.30 [2, 14]: 0.029%; Related substances RRT 0.40 [2, 14]: 0.006%; Related substances RRT 0.55 [2, 14]: 0.026%; Related substances RRT 0.92 [2, 14]: 0.050%; Related substances RRT 1.00 [2, 14]: 99.861%; Related substances RRT 0.08 [2, 15]: 0.012%; Related substances RRT 0.30 [2, 15]: 0.035%; Related substances RRT 0.40 [2, 15]: 0.009%; Related substances RRT 0.55 [2, 15]: 0.025%; Related substances RRT 0.92 [2, 15]: 0.037%; Related substances RRT 1.00 [2, 15]: 99.872%; Related substances RRT 0.08 [2, 16]: 0.013%; Related substances RRT 0.30 [2, 16]: 0.028%; Related substances RRT 0.40 [2, 16]: 0.007%; Related substances RRT 0.55 [2, 16]: 0.024%; Related substances RRT 0.92 [2, 16]: 0.034%; Related substances RRT 1.00 [2, 16]: 99.884%; Related substances RRT 0.08 [2, 17]: 0.013%; Related substances RRT 0.30 [2, 17]: 0.028%; Related substances RRT 0.40 [2, 17]: 0.008%; Related substances RRT 0.55 [2, 17]: 0.032%; Related substances RRT 0.92 [2, 17]: 0.045%; Related substances RRT 1.00 [2, 17]: 99.862%; change in related substances ([2]; methanol-dichloromethane (1:3), 30 min and 24 h): no significant change in related substances; Solubility ([3]; 0.5 h): <0.09 µg/mL; Solubility ([3]; 2 h): <0.09 µg/mL; Solubility ([3]; 4 h): <0.09 µg/mL; solubility at 0.5 h ([3]; phosphate buffer, 37 °C, pH 6.8, aqueous buffer, thermodynamic from solid, pH 6.8 phosphate buffer solution, 0.5 h): < 0.09 µg/mL; solubility at 2 h ([3]; phosphate buffer, 37 °C, pH 6.8, aqueous buffer, thermodynamic from solid, pH 6.8 phosphate buffer solution, 2 h): < 0.09 µg/mL; solubility at 4 h ([3]; phosphate buffer, 37 °C, pH 6.8, aqueous buffer, thermodynamic from solid, pH 6.8 phosphate buffer solution, 4 h): < 0.09 µg/mL; Related substances: CTF-aniline ([4]; 0 day): Not detected; Related substances: Maximum single impurity ([4]; 0 day): 0.03%; Related substances: Total impurity ([4]; 0 day): 0.09%; Related substances: CTF-aniline ([4]; 10 days): Not detected; Related substances: Maximum single impurity ([4]; 10 days): 0.04%; Related substances: Total impurity ([4]; 10 days): 0.10%; Related substances: CTF-aniline ([4]; 30 days): Not detected; Related substances: Maximum single impurity ([4]; 30 days): 0.05%; Related substances: Total impurity ([4]; 30 days): 0.10%; administered dose excreted through feces [5]: 77%; prototype drug excreted through feces [5]: above 51%; blood concentration of patients with serious adverse reactions [6]: more than 10,000 ng/ml; incidence of diarrhea [6]: 76.5%; incidence of fatigue [6]: 55.32%; incidence of hand-foot syndrome [6]: 68.99%; Solubility ([7]; pH1): 3.4 µg/mL (≈ 0.00731 mM); Solubility ([7]; pH4.5): 0.13 µg/mL (≈ 0.00028 mM)
